Test results reported in publication PMC6010047, “Design, synthesis and biological evaluation of novel hydroxy-phenyl-1H-benzimidazoles as radical scavengers and UV-protective agents” (Journal of Enzyme Inhibition and Medicinal Chemistry, 2017).
Like-named read-outs stand apart in the source and are kept apart here.

Assays:
[1] = 1,1-Diphenyl-2-picryl-hydrazyl radical (DPPH) assay; assay type: biochemical; details: Trolox equivalents; mean ± SE of three experiments
Method: To 1.5 mL DPPH methanolic solution (0.5 mM) was added 0.750 mL of sample solution proper diluted. Samples absorbance measurements were evaluated with a UV-VIS spectrophotometer (Thermo Spectronic Helios γ, Cambridge, UK) at fixed wavelength of 517 nm. Blank sample was prepared adding methanol to DPPH solution and Trolox was used as standard reference to achieve a calibration curve. The radical-scavenging activity is expressed as inhibition ratio of initial concentration of DPPH radical and is calculated according to the formula: Inhibition percentage (Ip) = [(AB-As)/AB]·100; where AB and As are, respectively, the absorbance values of blank reaction and of the tested sample[25].

[2] = test system: NCTC-2544 cells; assay: Phototoxicity / cellular photoprotection, UVA or UVB irradiation, MTT test; details: Homo sapiens, NCTC-2544, light or radiation study, 48 h
Method: (§1) An immortalized, nontumorigenic cell line of human keratinocytes (NCTC-2544) was grown in a DMEM medium (Sigma-Aldrich Milan, Italy), supplemented with 115 units/mL of penicillin G, 115 μg/mL streptomycin, and 10% fetal calf serum (Invitrogen, Milan, Italy). Individual wells of a 96-well tissue culture microtiter plates (Falcon, Becton–Dickinson) were inoculated with 100 μL of complete medium containing 5 × 10^3 NCTC-2544. The plates were incubated at 37 °C in a humidified (5% CO2) incubator for 18 h prior to the experiments.
Two HPW 125 Philips lamps, mainly emitting at 365 nm, were used for UVA irradiation experiments. The spectral irradiance of the source was 4.0 mWcm^−^2 as measured at the sample level by a Cole-Parmer Instrument Company radiometer (Niles, IL) equipped with a 365-CX sensor. One or two PL-S 9 W/12 Philips lamps (280–370 nm; peak at 315 nm) were used for UVB irradiation experiments. To restrict the incident radiation to the range 305–370 nm, a glass filter (Schott SWG-305) was used. Total energy was detected by the same equipped with a sensor (model CX-312).
After medium removal, 100 μL of the drug solution, dissolved in DMSO and diluted with Hank’s Balanced Salt Solution (HBSS pH =7.2), was added to each well, incubated at 37 °C for 30 min, and then irradiated (20 J/cm^2 for UVA and 0.5 and 1 J/cm^2 for UVB). After irradiation, the solution was replaced with the medium and the plates were further incubated for 48 h. Cell viability was assayed by the MTT [(3–(4,5-dimethylthiazol-2-yl)-2,5 diphenyl tetrazolium bromide)] test as previously described by Mosmann[27].
Molecules were verified for their photocytotoxicity in the same cell line; the cells were treated with 50 μM solutions of compound and after 30 min were irradiated with 20 J/cm^2 UVA or with UVB at two energy amounts: 0.5 J/cm^2 and 1 J/cm^2 UVB. […] After irradiation, the solution was replaced with growth medium and the cells were further incubated for 48 h, and then, cell viability was assessed by MTT assay. […] The phototoxicity of tested molecules was compared with the ratio of cell survival of irradiated keratinocytes without substance (IC = irradiated control).

[3] = Cytotoxicity, MTT test, 72 h; details: human, NCTC-2544 keratinocytes (immortalized, nontumorigenic)
Method: as §1
After medium removal, 100 μL of the drug solution, dissolved in DMSO and diluted in DMEM medium, was added to each well, incubated at 37 °C for 72 h. Final DMSO concentration never exceeded 0.5%. Cell viability was assayed by the MTT (3–(4,5-dimethylthiazol-2-yl)-2,5 diphenyl tetrazolium bromide) test as previously described by Mosmann[27].
The tests were conducted using a specific cell line of human keratinocytes (NCTC-2544). To assess cell viability, in the presence of the study compounds, before and after the irradiation, the MTT assay was performed[27]. The cytotoxicity was checked after 72 h from the incubation of the keratinocytes with compounds; moreover, the same experiments were performed in the presence of the parent PBSA.

[4] = UV spectra: λmax and molar extinction coefficient; assay type: physicochemical
Method: Sun protection factor (SPF) is related to the UV absorption of the substances, so before including the molecules in cosmetic formulations we evaluated the wavelength of maximum absorption (λmax) and the molar extinction coefficient (ɛ) of each molecule in aqueous solution at pH 7. The UV spectra were recorded between 270 and 420 nm (20 nm higher and lower then UVA and UVB range) to verify the spectrum profile of the molecules within UVA and UVB region. UV spectrum of PBSA is an UVB filter and presents a λmax of 302 nm; after this peak, the absorbance fades going to higher wavelength until almost zero around 325 nm, and then, it provides no absorption in the UVA region. Molecules spectra overlapped for category according to the substituent in position 5 of the benzimidazole ring are shown in Figures 1, 2 and 3; PBSA spectrum is presented in all figures for comparison.
From the spectra appears that the lambda maxima (Table 2) of the new molecules shifted toward higher wavelength and in general the range of absorption curve was wider than PBSA. Within a group of molecules, the batochromic shift was more marked for the molecules that have a hydroxyl moiety in position 2 of the phenyl ring (4, 5, 6, 9, 10, 11, 13 and […]); the effect of ortho substituted is known to produce this shift toward higher wavelength. Increasing the number of auxochrome groups on phenyl ring an increment in the absorption range occurred, compounds with three hydroxyl on the phenyl ring (6, 11, 15) had the broadest spectrum and their lambda maxima shifted at the highest wavelength compared to the other compounds. The absorption spectrum of molecules with the same number and position of hydroxyl seemed only slightly influenced by the substituent in position 5 of the benzimidazole ring. After having established the lambda maxima for every compound, solutions at different concentrations were prepared to calculate the molar extinction coefficient by means of linear regression and applying Lambert–Beer equation (Table 2).

[5] = Ferric reducing antioxidant of potency (FRAP) assay; assay type: biochemical; details: Trolox equivalents; mean ± SE of three experiments
Method: The ferric reducing ability of each standard solution was measured according to a modified protocol described by Guihua et al.[26]. The reagent for analysis was freshly prepared by mixing the following solutions in the reported ratio 10/1/1 (v:v:v) (i) 0.1 M acetate buffer pH 3.6, (ii) TPTZ (2,4,6-Tri(2-pyridyl)-s-triazine) 10 mmol/L in 40 mmol/HCl, (iii) ferric chloride 20 mmol/L. To a 1.9 mL of reagent were added 0.1 mL of sample proper diluted or solvent when blank was performed. Readings at fixed wavelength of the absorption maximum (593 nm) were done after 30 min, using a UV-VIS spectrophotometer; it was evaluated the absorbance increase of sample solution against the absorbance of blank reaction as parameter to calculate the antioxidant activity. The antioxidant activity is given as Trolox activity since this standard was used to perform the calibration curves.

Oc1ccc(-c2nc3ccccc3[nH]2)cc1 [Compound 7, 2-(4-Hydroxy-phenyl)-1H-benzimidazole]
DPPH [1]: 1.67 ± 0.08 μmolTrolox/mmol
viability at 20 µM ([2]; read-out: % Cell survival UVA 20 J/cm^2): 72.8 ± 2.9%
viability at 20 µM ([2]; read-out: % Cell survival UVB 0.5 J/cm^2): 74.2 ± 1.3%
viability at 20 µM ([2]; read-out: % Cell survival UVB 1 J/cm^2): 44 ± 4.1%
IC50 at 72 h [3]: 26.1 ± 2.4 µM
λ max ([4]; aqueous solution at pH 7): 306 nm
ɛ (molar extinction coefficient) ([4]; aqueous solution at pH 7, at λ max, linear regression Lambert–Beer): 24 000
FRAP [5]: 21.94 ± 0.12 μmolTrolox/mmol
